One substance from patent publication US10988730B2, “Sand worm lyophilisate and uses thereof” (HEMARINA, priority 2013, dated 2021) can be followed below.

The test system of test [1] is Lactococcus lactis SB50. As to the kind of experiment: Flask culture of Lactococcus lactis SB50, optical density. The format is cell-based. The protocol:
(§1) Sample Preparation • i) Flask culture: dissolution of the powders at 200 g/l then filtration of the supernatant and addition to the flasks. • ii) Bioreactor culture: direct addition to the reactors in a proportion of 1 g/l of powder before autoclaving.
Culture Conditions • i) Flask (100 ml, 0.5 and 11) culture:
(§2) The strain used is a strain of Lactococcus lactis SB50.
The tests were carried out overnight (16-18 h) at 30° C. with shaking at 180 rpm.
The composition of the culture medium for the strain is the following: glucose (1%), maltose (0.1%), yeast extract (2%) and minerals.
The culture conditions are the following: filling to 10% useful volume; a positive control with addition of hemin (hemoglobin of bovine origin) at 10 ppm final concentration is used.
(§3) The HEMARINA samples (powders in solution) were added post-sterilization after centrifugation. • ii) Bioreactor (11 useful volume) culture:
(§4) The optical density (OD) at 600 nm is measured for each culture.

Test [2] has as its system Lactococcus lactis SB50. As to the kind of experiment: Bioreactor culture of Lactococcus lactis SB50 (OD, dry weight, NH4OH volume, viability). Format: cell-based. The procedure:
as §1, §2, §3
The tests were carried out overnight (15-16 h) at 30° C.
The composition of the culture medium for the strain is identical to that of the flasks, with an addition of 0.01% antifoam.
The culture conditions are the following: filling to 60% useful volume, pO2 regulated at 20% or 80% and pH regulated at 6.
1 g/l of powder are added directly to the culture medium before autoclaving.
as §4

The mark [3] stands for this setting: overnight (15-16 h), 30° C., 1 g/l of powder.

As to hemin, the active concentration entry in test [1] (equivalent to that of hemin) is “approximately 0.25 ppm”. The “OD at 600 nm” value stood at 4.5 in test [1] (overnight (16-18 h), 30° C., 180 rpm, hemin 10 ppm final concentration) and 10.9 in test [2] (overnight (15-16 h), 30° C., pH 6, 1 g/l of powder). The substance also had a Dry weight in test [2] (setting [3]) of 3.4 g/L. Further, the Viability in test [2] (setting [3]) is recorded as 5.03E+09 CFU/ml. In addition, in test [2] (pH regulated at 6, 1 g/l of powder), the “Volume NH4OH (corresponding to production of lactic acid)” value was found to be 12.3 mL.
